Patent US7928210B2, “Nucleoside based proliferation imaging markers” (Siemens Medical Solutions USA, Inc., priority 2007, dated 2011)
“Also recorded” adds a separate entry of the source.

Experiments:
[1] = system: SK-N-MC cell line (human brain neuroepithelioma, high S phase); assay: Cancer cell uptake, SK-N-MC; details: for Cell Uptake: (ii) SK-N-MC; for Uptake and intracellular retention: SK-N-MC cells in vitro
[2] = system: A172 cell line (human brain glioblastoma, low S phase); assay: Cancer cell uptake, A172; details: for Cell Uptake: (iii) A172; for Uptake and intracellular retention: A172 cells in vitro
[3] = molecular target: T1, human thymidine kinase 1 (hTK1) (Homo sapiens, UniProt P04183); assay: hTK-1 kinase phosphorylation, metabolites monitored by LC/MS-SIM; details: in vitro
T1 sequence (P04183 1-234): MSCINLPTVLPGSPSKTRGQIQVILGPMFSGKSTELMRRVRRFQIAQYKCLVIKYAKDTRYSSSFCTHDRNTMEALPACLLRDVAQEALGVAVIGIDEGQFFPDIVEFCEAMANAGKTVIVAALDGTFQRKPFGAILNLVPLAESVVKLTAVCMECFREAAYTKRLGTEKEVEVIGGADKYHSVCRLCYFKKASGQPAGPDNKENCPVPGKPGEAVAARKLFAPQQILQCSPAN

A431 tumor bearing mice = assay: In vivo imaging of A431 tumor bearing mice (clearance, tumor localization, tumor ratios); set-up: species or system mouse; details: for Localization within the tumor / Type of Clearance: in vivo (rodents), A431 tumor; for Ratio T/M: tumor to muscle; for Ratio T/B: tumor to background, p.i. 45 min
[4] = system: A431 cell line (human skin epidermoid carcinoma, high S phase); assay: Cancer cell uptake, A431; details: (i) A431
[5] = cited from earlier work
Balb/3T12-3 cells = assay: Cell uptake, Balb/3T12-3; details: for Cell Uptake: (iv) Balb/3T12-3; for Uptake and intracellular retention: BalB/3T12-3 cells in vitro
DNA = assay: Incorporation into DNA compared against FMAU; format: cell-based; details: data not shown
[6] = system: human liver cancer cells (HepG2); assay: Liver cell uptake by LC/MS-SIM, human liver cancer cells; format: cell-based; details: HepG2, in vitro
Source text: (§1) The mouse liver cell uptake of a small number of thymidine analogs was higher than FLT and thymidine, and the levels of human liver cell uptake were similar to FLT and thymidine. Ideally, low levels of liver cell uptake help increase the tumor to background ratios in the PET image. Furthermore, we examined the metabolic profile of the leads (Ta-1, Ta-4, and Ta-10) in vitro using normal mouse liver cell line (AML12) and human liver cancer cell line (HepG2).

[7] = system: normal mouse liver cells (AML12); assay: Liver cell uptake by LC/MS-SIM, normal mouse liver cells; format: cell-based; details: AML12, in vitro
Source text: as §1

With `Cc1cn([C@@H]2O[C@H](CO)C(O)C2OCCF)c(=O)[nH]c1=O` (stereo partly shown) [Ta-7] the “Cell Uptake” value [1] was 0.083, the “Cell Uptake” value [2] was 0.004 and the “Pi % (phosphorylation percentage)” value [3] was 5.6%. For the same molecule, the “Localization within the tumor” value (A431 tumor bearing mice) was ≤ 1 % ID/g, the “Type of Clearance” value (A431 tumor bearing mice) was “Clear through the gut/ hepatobiliary system; localize mainly in the gut; a small percentage of the inject dose penetrate and localize within the tumor” and the “Ratio T/M” value (A431 tumor bearing mice; time not given) was 1.05 (T/M). For the same molecule, the “Cell Uptake” value [4] was 0.027.

In the case of `Cc1cn([C@H]2CC(F)[C@@H](CO)O2)c(=O)[nH]c1=O` (stereo partly shown) [FLT, 3′-[^18F]fluoro-3′-deoxythymidine, reference compound], the “Injected dose per gram in tumors, on average” value ([5]; background section) is listed as 5%, the “Pi % (phosphorylation percentage)” value [3] is listed as 31% and the “Type of Clearance” value (A431 tumor bearing mice) is listed as “Clear through renal system; localize within the tumor”.

In the case of `Cc1cn([C@H]2CC(F)[C@@H](CO)O2)c(=O)n(Cc2cn(CCF)nn2)c1=O` (stereo partly shown) [FLT-Click-2], the “Cell Uptake” value [1] is reported as 0.080, the “Pi % (phosphorylation percentage)” value [3] is reported as 4.5% and the “Localization within the tumor” value (A431 tumor bearing mice) is reported as ≤ 1 % ID/g. The “Type of Clearance” value (A431 tumor bearing mice) was “Clear through the gut/ hepatobiliary system; localize moderately within the tumor”, the “Ratio T/B” value (A431 tumor bearing mice) was 1.75 (T/B; (p.i. 45 min) and the “Cell Uptake” value [4] was 0.003.

In the case of `Cc1cn([C@H]2CC(O)[C@@H](CO)O2)c(=O)n(Cc2cn([C@H](C(=O)NCc3cc(F)ccn3)C(C)C)nn2)c1=O` (stereo partly shown) [Ta-3], the “Cell Uptake” value (Balb/3T12-3 cells) is reported as 0.117, the “Cell Uptake” value [1] is reported as 0.059 and the “Cell Uptake” value [2] is reported as 0.093. The “Pi % (phosphorylation percentage)” value [3] was 25.5%, the “Type of Clearance” value (A431 tumor bearing mice) was “large localization of the tracer in the gut and clearance through the bowels; also recorded: Clear through the bowels; localize mainly in the gut” and the “Cell Uptake” value [4] was 0.004.

In the case of `Cc1cn([C@H]2CC(O)[C@@H](CO)O2)c(=O)n(CCF)c1=O` (stereo partly shown) [Ta-4, 3-N-(2′-[^18F]fluoroethyl)-thymidine], the “Incorporation into DNA” value (DNA) is reported as “substantially lower”, the Liver cell uptake [6] is reported as “less than Ta-1” and the “Uptake and intracellular retention” value (Balb/3T12-3 cells) is reported as “favorably taken up and retained intracellularly”. For the same molecule, the Liver cell uptake [7] was “less than Ta-1”, the “Cell Uptake” value [1] was 0.218 and the “Uptake and intracellular retention” value [1] was “favorably taken up and retained intracellularly”. For the same molecule, the “Cell Uptake” value [2] was 0.142, the “Uptake and intracellular retention” value [2] was “favorably taken up and retained intracellularly” and the “Pi % (phosphorylation percentage)” value [3] was 77.4%. For the same molecule, the “Localization within the tumor” value (A431 tumor bearing mice) was 2-3.5 % ID/g, the “Type of Clearance” value (A431 tumor bearing mice) was “has less liver uptake than Ta-1, localizes more strongly within the A-431 based tumor and possesses a clearance mechanism similar to FLT; also recorded: Less liver uptake than Ta-1; localize more strongly within the A431 based tumor; possess a clearance mechanism similar to FLT” and the “Ratio T/M” value (A431 tumor bearing mice; p.i. 50 min) was 2.3 (T/M; p.i 50 min). For the same molecule, the “Cell Uptake” value [4] was 0.172.

For `O=c1[nH]c(=O)n([C@H]2CC(O)[C@@H](CO)O2)cc1-c1cn(CCF)nn1` (stereo partly shown) [FLT-Click-3], the “Pi % (phosphorylation percentage)” value [3] was 0%, the “Type of Clearance” value (A431 tumor bearing mice) was “Clear through the gut; but did not localize within the tumor” and the “Ratio T/B” value (A431 tumor bearing mice) was 1.1 (T/B; p.i. 45 min).

For `Cc1cn([C@H]2CC(O)[C@@H](CO)O2)c(=O)n(CCCF)c1=O` (stereo partly shown) [Ta-14], the “Incorporation into DNA” value (DNA) was “substantially lower”.

With `Cc1cn([C@@H]2O[C@H](CO)C(O)C2O)c(=O)n(CCF)c1=O` (stereo partly shown) [Ta-8] the “Cell Uptake” value [1] was 0.097, the “Cell Uptake” value [2] was 0.018 and the “Pi % (phosphorylation percentage)” value [3] was 18.2%. For the same molecule, the “Localization within the tumor” value (A431 tumor bearing mice) was ≤ 1 % ID/g, the “Type of Clearance” value (A431 tumor bearing mice) was “Clear through the renal system; localize moderately within the tumor” and the “Ratio T/M” value (A431 tumor bearing mice; time not given) was 0.99 (T/M). The “Cell Uptake” value [4] was 0.052.

In the case of `Cc1cn([C@H]2CC(n3cc(CF)nn3)[C@@H](CO)O2)c(=O)[nH]c1=O` (stereo partly shown) [FLT-Click-1], the “Pi % (phosphorylation percentage)” value [3] is reported as 6.1% and the “Type of Clearance” value (A431 tumor bearing mice) is reported as “Clear very rapidly from the blood; localize mainly in the bladder”.

For `Cc1cn([C@H]2CC(O)[C@@H](CO)O2)c(=O)n(Cc2cn(Cc3cccc(Br)c3)nn2)c1=O` (stereo partly shown) [Ta-4D], the “Pi % (phosphorylation percentage)” value [3] was 51.9%.

In the case of `Cc1cn([C@@H]2O[C@H](CO)C(O)C2F)c(=O)[nH]c1=O` (stereo partly drawn) [FMAU, 1-(2′-deoxy-2′-[^18F]fluoro-β-D-arabinofuranosyl)-5-methyluracil, reference compound], the “Incorporation into DNA” value (DNA) is given as “very high”, the “Type of Clearance” value ([5]; known / literature (Sun et al. 2005 for FMAU; 11C label for thymidine)) is given as “Hepatobiliary clearance^c” and the “Cell Uptake” value [1] is given as 0.011. For the same molecule, the “Cell Uptake” value [2] was 0.015, the “Pi % (phosphorylation percentage)” value [3] was 80% and the “Cell Uptake” value [4] was 0.012.

With `Cc1cn([C@H]2CC(F)[C@@H](CO)O2)c(=O)n(CCF)c1=O` (stereo partly shown) [Ta-6] the “Cell Uptake” value [1] was 0.007, the “Cell Uptake” value [2] was 0.004 and the “Pi % (phosphorylation percentage)” value [3] was 4.5%. The “Cell Uptake” value [4] was 0.023.

For `Cc1cn([C@H]2CC(F)[C@@H](CO)O2)c(=O)n(CCF)c1=O` (stereo partly shown) [Ta-4F], the “Cell Uptake” value [1] was 0.063, the “Cell Uptake” value [2] was 0.067 and the “Pi % (phosphorylation percentage)” value [3] was 9.2%. The “Cell Uptake” value [4] was 0.075.

In the case of `Cc1cn([C@H]2CC(O)[C@@H](CO)O2)c(=O)n(Cc2cn(CCF)nn2)c1=O` (stereo partly shown) [Ta-1], the “Cell Uptake” value (Balb/3T12-3 cells) is reported as 0.064, the “Uptake and intracellular retention” value (Balb/3T12-3 cells) is reported as “favorably taken up and retained intracellularly” and the “Cell Uptake” value [1] is reported as 0.081. For the same molecule, the “Uptake and intracellular retention” value [1] was “favorably taken up and retained intracellularly”, the “Cell Uptake” value [2] was 0.042 and the “Uptake and intracellular retention” value [2] was “favorably taken up and retained intracellularly”. The “Pi % (phosphorylation percentage)” value [3] was 65.6%, the “Localization within the tumor” value (A431 tumor bearing mice) was ≤ 1 % ID/g and the “Type of Clearance” value (A431 tumor bearing mice) was “despite rapid gut clearance, a small percentage of the inject dose penetrated and localized within the tumor; also recorded: Clear through the gut/ hepatobiliary system; localize mainly in the gut; a small percentage of the inject dose penetrate and localize within the tumor”. The “Ratio T/M” value (A431 tumor bearing mice; p.i. 50 min) was 2.1 (T/M; p.i. 50 min) and the “Cell Uptake” value [4] was 0.045.

With `Cc1cn([C@H]2CC(O)[C@@H](CO)O2)c(=O)n(CCn2cc(CF)nn2)c1=O` (stereo partly shown) [Ta-5] the “Cell Uptake” value [1] was 0.072, the “Cell Uptake” value [2] was 0.051 and the “Pi % (phosphorylation percentage)” value [3] was 10.2%. The “Cell Uptake” value [4] was 0.068.

For `Cc1cn([C@H]2CC(O)[C@@H](CO)O2)c(=O)n(Cc2cn([C@H](C(=O)NCc3ccccc3)C(C)C)nn2)c1=O` (stereo partly shown) [Ta-6233], the “Pi % (phosphorylation percentage)” value [3] was 71.5%.

In the case of `Cc1cn([C@@H]2O[C@H](CO)C(O)C2F)c(=O)n(CCF)c1=O` (stereo partly shown) [Ta-9], the “Cell Uptake” value [1] is reported as 0.014, the “Cell Uptake” value [2] is reported as 0.009 and the “Pi % (phosphorylation percentage)” value [3] is reported as 1.4%. For the same molecule, the “Cell Uptake” value [4] was 0.027.

For `Cc1cn([C@H]2CC(O)[C@@H](CO)O2)c(=O)n(CC(O)CF)c1=O` (stereo partly shown) [Ta-10], the “Incorporation into DNA” value (DNA) was “substantially lower”, the “Cell Uptake” value [1] was 0.031 and the “Cell Uptake” value [2] was 0.017. The “Pi % (phosphorylation percentage)” value [3] was 27.5%, the “Localization within the tumor” value (A431 tumor bearing mice) was ≤ 1 % ID/g and the “Type of Clearance” value (A431 tumor bearing mice) was “Clear through the gut/renal system; localize moderately within the tumor”. The “Ratio T/M” value (A431 tumor bearing mice; time not given) was 0.35 (T/M) and the “Cell Uptake” value [4] was 0.023.

For `Cc1cn([C@H]2CC(O)[C@@H](CO)O2)c(=O)n(Cc2cn(Cc3cc(F)ccn3)nn2)c1=O` (stereo partly shown) [Ta-2], the “Cell Uptake” value (Balb/3T12-3 cells) was 0.090, the “Cell Uptake” value [1] was 0.030 and the “Cell Uptake” value [2] was 0.071. The “Pi % (phosphorylation percentage)” value [3] was 39.2% and the “Cell Uptake” value [4] was 0.019.

For `Cc1cn([C@@H]2O[C@H](CO)C(O)C2O)c(=O)n(CCF)c1=O` (stereo partly shown) [Ta-11], the “Cell Uptake” value [1] was 0.02, the “Cell Uptake” value [2] was 0.006 and the “Pi % (phosphorylation percentage)” value [3] was 9.8%. The “Localization within the tumor” value (A431 tumor bearing mice) was ≤ 1 % ID/g, the “Type of Clearance” value (A431 tumor bearing mice) was “Clear through the renal system; localize moderately within the tumor” and the “Ratio T/M” value (A431 tumor bearing mice; time not given) was 0.52 (T/M). The “Cell Uptake” value [4] was 0.03.
